Experimental data reported in ChEMBL document CHEMBL3045008, “Toxicity, inheritance of fenpyroximate resistance, and detoxification-enzyme levels in a laboratory-selected fenpyroximate-resistant strain of Tetranychus urticae Koch (Acari: Tetranychidae)” (2011).

Tests used:
Assay type in all cases: functional
Tetranychus urticae [1] = test: Resistant ratio, LC50 for Tetranychus urticae FPY 14 (two-spotted spider mite) to LC50 for Tetranychus urticae GSS
Tetranychus urticae [2] = test: Insecticidal activity against Tetranychus urticae FPY 14 (two-spotted spider mite) assessed as mortality at 26 +/- 2 degC with 60 +/- 5% RH for first 24 hr
Tetranychus urticae [3] = test: Insecticidal activity against Tetranychus urticae GSS (two-spotted spider mite) assessed as mortality at 26 +/- 2 degC with 60 +/- 5% RH for first 24 hr

SMILES | RatioLC50 (Tetranychus urticae [1]) | LC50 (Tetranychus urticae [2]) [mgAi/L] | LC50 (Tetranychus urticae [3]) [mgAi/L] | LC60 (Tetranychus urticae [2]) [mgAi/L] | LC90 (Tetranychus urticae [2]) [mgAi/L] | LC60 (Tetranychus urticae [3]) [mgAi/L] | LC90 (Tetranychus urticae [3]) [mgAi/L]
Cc1c(COC(=O)[C@@H]2[C@H](/C=C(\Cl)C(F)(F)F)C2(C)C)cccc1-c1ccccc1 (relative stereo) [BIFENTHRIN] | <1 | 12.77 | 54.53 |  |  |  | 
CC[C@H](C)[C@H]1O[C@]2(C=C[C@@H]1C)C[C@@H]1C[C@@H](C/C=C(\C)[C@@H](O[C@H]3C[C@H](OC)[C@@H](O[C@H]4C[C@H](OC)[C@@H](O)[C@H](C)O4)[C@H](C)O3)[C@@H](C)/C=C/C=C3\CO[C@@H]4[C@H](O)C(C)=C[C@@H](C(=O)O1)[C@]34O)O2.CO[C@H]1C[C@H](O[C@H]2[C@H](C)O[C@@H](O[C@@H]3/C(C)=C/C[C@@H]4C[C@@H](C[C@]5(C=C[C@H](C)[C@@H](C(C)C)O5)O4)OC(=O)[C@@H]4C=C(C)[C@@H](O)[C@H]5OC/C(=C\C=C\[C@@H]3C)[C@]54O)C[C@@H]2OC)O[C@@H](C)[C@@H]1O [ABAMECTIN] | 7.8 | 1.56 | 0.2 |  |  |  | 
Cc1ccc(/N=C/N(C)/C=N/c2ccc(C)cc2C)c(C)c1 [AMITRAZ] | 2.78 | 167.13 | 60.07 |  |  |  | 
CCOP(=S)(OCC)Oc1nc(Cl)c(Cl)cc1Cl [CHLORPYRIFOS] | 6.9 | 85.84 | 12.44 |  |  |  | 
Clc1ccccc1-c1nnc(-c2ccccc2Cl)nn1 [CLOFENTEZINE] | 4.78 | 68.52 | 14.32 |  |  |  | 
Cc1nn(C)c(Oc2ccccc2)c1/C=N/OCc1ccc(C(=O)OC(C)(C)C)cc1 [FENPYROXYMATE] |  |  |  | 319.1 | 1637.86 | 5.1 | 29.5
C#CCOS(=O)OC1CCCCC1Oc1ccc(C(C)(C)C)cc1 (configuration not stated) [PROPARGITE] | 6.43 | 482.52 | 75 |  |  |  | 
